According to article PMC4961458 (eLife, 2016):

Legend:
[1] = biological target: T1, MR (Homo sapiens, UniProt P08235); assay: MR transcriptional reporter assay, antagonist mode (HEPG2 cells); format: cell-based; settings: 1 nM aldosterone
T1 construct: expressed in transfected cells; host or cells: HEPG2
T1 sequence (P08235 1-984): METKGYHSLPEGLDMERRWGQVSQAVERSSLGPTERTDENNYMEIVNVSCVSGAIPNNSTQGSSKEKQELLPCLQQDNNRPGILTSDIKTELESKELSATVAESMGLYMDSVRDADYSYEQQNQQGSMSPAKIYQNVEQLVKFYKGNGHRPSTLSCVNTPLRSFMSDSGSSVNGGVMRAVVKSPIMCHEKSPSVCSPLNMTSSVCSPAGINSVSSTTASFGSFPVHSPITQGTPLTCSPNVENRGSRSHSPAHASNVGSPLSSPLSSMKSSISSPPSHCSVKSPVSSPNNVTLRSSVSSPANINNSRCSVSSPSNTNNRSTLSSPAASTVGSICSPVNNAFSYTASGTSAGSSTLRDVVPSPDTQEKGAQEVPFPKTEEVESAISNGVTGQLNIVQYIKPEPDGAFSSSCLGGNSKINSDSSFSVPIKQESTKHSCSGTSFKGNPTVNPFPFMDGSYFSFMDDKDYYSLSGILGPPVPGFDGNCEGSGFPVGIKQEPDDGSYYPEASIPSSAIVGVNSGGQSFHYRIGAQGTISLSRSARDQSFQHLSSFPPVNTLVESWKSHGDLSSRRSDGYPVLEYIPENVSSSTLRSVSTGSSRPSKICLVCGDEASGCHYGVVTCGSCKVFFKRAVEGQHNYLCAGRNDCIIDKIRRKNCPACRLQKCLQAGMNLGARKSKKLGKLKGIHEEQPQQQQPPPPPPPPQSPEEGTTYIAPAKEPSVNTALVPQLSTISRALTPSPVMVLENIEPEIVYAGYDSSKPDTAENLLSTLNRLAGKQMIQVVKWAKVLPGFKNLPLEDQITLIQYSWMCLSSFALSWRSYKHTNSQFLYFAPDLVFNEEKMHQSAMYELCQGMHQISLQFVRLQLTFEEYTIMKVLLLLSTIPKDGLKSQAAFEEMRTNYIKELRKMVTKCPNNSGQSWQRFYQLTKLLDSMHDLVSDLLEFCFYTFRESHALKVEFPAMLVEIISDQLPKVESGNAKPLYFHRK

[2] = biological target: T2, PR-B (Homo sapiens, UniProt P06401); assay: PR-B transcriptional reporter assay, antagonist mode (HEPG2 cells); format: cell-based; settings: 1 nM R5020
T2 construct: cloning full-length human PRb into pCDNA; expressed in transfected cells; host or cells: HEPG2
T2 sequence (P06401 1-933): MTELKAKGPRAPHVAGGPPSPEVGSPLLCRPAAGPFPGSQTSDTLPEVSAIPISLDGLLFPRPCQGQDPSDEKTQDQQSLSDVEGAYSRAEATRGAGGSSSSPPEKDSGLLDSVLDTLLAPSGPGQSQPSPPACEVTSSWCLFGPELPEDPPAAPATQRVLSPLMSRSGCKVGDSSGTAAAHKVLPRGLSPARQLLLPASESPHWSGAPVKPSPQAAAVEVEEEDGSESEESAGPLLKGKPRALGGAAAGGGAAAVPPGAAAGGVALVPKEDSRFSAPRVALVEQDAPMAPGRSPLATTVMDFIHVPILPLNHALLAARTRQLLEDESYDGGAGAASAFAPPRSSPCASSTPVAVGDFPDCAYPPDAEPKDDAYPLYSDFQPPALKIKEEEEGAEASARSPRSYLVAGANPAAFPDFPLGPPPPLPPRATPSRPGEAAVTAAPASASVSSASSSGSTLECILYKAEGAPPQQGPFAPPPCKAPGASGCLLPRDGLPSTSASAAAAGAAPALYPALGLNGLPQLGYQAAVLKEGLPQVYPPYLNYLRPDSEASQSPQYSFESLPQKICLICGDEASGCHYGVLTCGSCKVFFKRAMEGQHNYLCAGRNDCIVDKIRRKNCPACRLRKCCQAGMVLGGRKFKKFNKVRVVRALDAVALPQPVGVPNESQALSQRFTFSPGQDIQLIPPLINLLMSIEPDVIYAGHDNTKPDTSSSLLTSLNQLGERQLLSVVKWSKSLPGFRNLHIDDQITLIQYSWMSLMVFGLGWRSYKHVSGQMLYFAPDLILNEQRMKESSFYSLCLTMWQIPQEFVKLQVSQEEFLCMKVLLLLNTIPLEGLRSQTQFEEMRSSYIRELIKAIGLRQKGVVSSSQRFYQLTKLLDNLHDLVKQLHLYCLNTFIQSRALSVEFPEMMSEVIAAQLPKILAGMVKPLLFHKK

[3] = biological target: ERα (Homo sapiens, UniProt P03372); assay: MCF7 ERα In-Cell Western assay; settings: MCF7, 4 hr
ERα, sequence (P03372 whole entry): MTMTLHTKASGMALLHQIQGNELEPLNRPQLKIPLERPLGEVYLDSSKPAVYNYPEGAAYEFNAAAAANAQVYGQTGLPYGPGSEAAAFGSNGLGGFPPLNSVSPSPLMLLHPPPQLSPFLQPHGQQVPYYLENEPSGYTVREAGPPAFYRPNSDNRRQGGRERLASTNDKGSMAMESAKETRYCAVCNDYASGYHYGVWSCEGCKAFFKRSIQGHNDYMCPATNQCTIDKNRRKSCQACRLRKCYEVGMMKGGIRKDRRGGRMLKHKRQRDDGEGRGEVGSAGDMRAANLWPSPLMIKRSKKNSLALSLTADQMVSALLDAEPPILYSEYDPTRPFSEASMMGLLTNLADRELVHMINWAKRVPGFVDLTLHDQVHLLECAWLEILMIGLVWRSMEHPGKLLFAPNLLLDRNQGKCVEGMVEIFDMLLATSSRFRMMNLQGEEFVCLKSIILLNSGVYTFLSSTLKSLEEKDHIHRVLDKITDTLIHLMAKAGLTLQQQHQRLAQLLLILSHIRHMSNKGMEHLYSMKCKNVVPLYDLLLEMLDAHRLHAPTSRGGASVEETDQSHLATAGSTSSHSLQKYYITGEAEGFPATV

[4] = system: ER; set-up: method as in van Kruchten et al., 2015; settings: 500 mg dose, 6/16 patients; ref van Kruchten et al., 2015; cited from earlier work

SMILES | IC50 [1] [µM] | IC50 [2] [µM] | ERα degradation In-Cell Western Emax [3] [% Veh.] | patients with incomplete inhibition of [18F]fluoroestradiol uptake [4]
CC/C(=C(\c1ccc(O)cc1)c1ccc(OCCN(C)C)cc1)c1ccccc1 [4-OH Tam, 4-hydroxytamoxifen] | 6.42 ± 0.75 | 7.16 ± 2.15 |  | 
C[C@]12CC[C@@H]3c4ccc(O)cc4C[C@@H](CCCCCCCCC[S+]([O-])CCCC(F)(F)C(F)(F)F)[C@H]3[C@@H]1CC[C@@H]2O (stereo partly shown) [Fulvestrant] |  |  | 6.4 ± 2.0 | 38 % of patients
